According to publication PMC12679539, “Synthesis and evaluation of nitroheterocyclic aromatic adamantane amides with trypanocidal activity. Part II” (RSC Medicinal Chemistry, 2025):

Columns and labels:
[1] = test system: L. infantum promastigotes; test: Activity against Leishmania infantum promastigotes (resazurin assay); type: cell-based, Leishmania infantum (MHOM/MA/67/ITMAP-263); settings: for IC50: Leishmania infantum, promastigotes, 72 h, 95% CI in brackets; for SI (promastigotes) CC50/Li IC50: THP-1 CC50 / L. infantum promastigote IC50
Method: Promastigotes from the L. infantum strain (MHOM/MA/67/ITMAP-263) were cultivated in 5 ml of Schneider's insect medium, which was supplemented with 10% heat-inactivated fetal bovine serum (FBS), 200 U ml^−1 of penicillin/streptomycin, 6 μg ml^−1 of phenol red, and 5 mM of HEPES. The cultures were maintained in an incubator at 27 °C and diluted to a concentration of 2 × 10^5 cells per ml every 5 days. For the assays the parasites used were equivalent to late/log with two or three days of culture.
The efficacy of the compounds against L. infantum promastigotes was evaluated using a resazurin-based assay. Parasites were added to 100 μl of serial dilutions of the compounds in supplemented complete medium at a cell density of 5 × 10^5 ml^−1. As a quality control, a dose–response curve with the antileishmanial drug miltefosine was included in all assays. The final volume of each assay was 200 μl per well, and each condition was tested in duplicate. After a 72-hour incubation under specific conditions for each parasite, 20 μl of a 0.5 mM resazurin solution was added, and the plates were incubated for an additional 4 hours under the same conditions. Fluorescence was measured at 544 nm for excitation and 590 nm for emission using a Synergy 2 Multi-Mode Reader (Biotek, Winooski, VT, USA). Results were expressed as the percentage of parasite growth inhibition compared to controls (untreated parasites) and represent the average of at least three independent experiments. The effect was evaluated by determining the IC50 value (the concentration required to inhibit 50% growth), calculated using non-linear regression curves via GraphPad Prism version 8.1.1 for Windows (GraphPad Software, San Diego, CA, USA).

[2] = Cytotoxicity on THP-1-derived macrophages (MTT assay); type: cell-based; settings: human, THP-1-derived macrophages (PMA-differentiated), value or interval
Method: The THP-1 cell line, a human leukemia line (ATCC® TIB-202™), was cultured in RPMI-1640 medium supplemented with 10% heat-inactivated fetal bovine serum (FBS), 2 mM. L-Glutamine, 100 IU mL^−1 penicillin/streptomycin, and 20 mM HEPES. The cells were maintained in a humidified incubator at 37 °C with 5% CO2. Subculturing was performed every three days, using 20 mL of media at a concentration of 2 × 10^5 cells per mL in a T75 flask. All cell culture reagents were purchased from Lonza Bioscience (Morrisville, NC).
The cytotoxicity of the compounds on THP-1-derived macrophages was evaluated using the colorimetric MTT assay (3-(4,5-dimethylthiazol-2-yl)-2,5-diphenyltetrazolium bromide), as described in Magoulas et al. (2021).[28] THP-1 cells were suspended in complete RPMI medium at a density of 1 × 10^6 cells per mL, and 100 μL of this suspension was seeded into each well of a 96-well plate. The cells were differentiated into macrophages by adding 40 ng mL^−1 of phorbol-myristate 13-acetate (PMA, Sigma, Saint Louis, MI, USA) for 24 hours, followed by replacement with fresh medium for an additional 24 hours. Subsequently, the cells were incubated with 100 μL of various compounds, diluted in complete RPMI medium, at concentrations ranging from 100 to 12.5 μM. Each condition was tested in triplicate. After 72 hours of incubation at 37 °C with 5% CO2, the medium was removed, and 200 μL of a 0.5 mg mL^−1 MTT solution, diluted in RPMI, was added to each well. The plates were incubated for an additional 4 hours. Following this incubation, 160 μL of the medium was removed and replaced with 160 μL of 2-propanol. Absorbance was measured at 570 nm using a Synergy 2 Multi-Mode Reader (Biotek, Winooski, VT, USA). Cytotoxicity was determined by presenting the CC50 (the concentration of the drug that reduces cell viability by 50%) interval or by calculating the CC50 value through non-linear regression analysis using GraphPad Prism version 8.1.1 for Windows (GraphPad Software, San Diego, CA, USA). The results represent the average of at least three independent experiments.

[3] = test system: bloodstream-form Trypanosoma brucei; test: Activity against bloodstream-form Trypanosoma brucei (Alamar Blue growth inhibition); type: cell-based, Trypanosoma brucei (strain 427); settings: for IC50 / IC90: Trypanosoma brucei, bloodstream form; for IC50: concentration that inhibits growth by 50%, read-out: T. brucei IC50; for IC90: concentration that inhibits growth by 90%, read-out: T. brucei IC90; for S.I. (selectivity index): ratio of IC50 values obtained with L6 cells and T. brucei
Method: (§1) Bloodstream form T. brucei (strain 427) were cultured at 37 °C in modified Iscove's medium. Trypanocidal activity was assessed by growing parasites in microtiter plates in the presence of various drug concentrations. […] The plates were incubated for 48 hours at 37 °C and 20 μL Alamar Blue was then added to each well. After an additional overnight incubation, the fluorescence was determined using a Gemini fluorescent plate reader (Molecular Devices). Inhibition of growth was calculated by comparison with control values and IC50 and IC90 values were determined in triplicate using linear regression analysis.

T. cruzi epimastigotes = test: Activity against Trypanosoma cruzi epimastigotes (Alamar Blue growth inhibition); type: cell-based, Trypanosoma cruzi (strain CL Brener); settings: CL Brener
Method: as §1, with “Trypanocidal” for “Bloodstream form T. brucei (strain 427) were cultured at 37 °C in modified Iscove's medium. Trypanocidal”, “4 days” for “48 hours”, “28” for “37”, “Blue (Biosource UK Ltd)” for “Blue”, “3 days” for “overnight”

L6 cells = test: Cytotoxic activity against rat skeletal myoblast L6 cells (Alamar Blue); type: cell-based; settings: 120 h, cytotoxicity, 5 days
Method: The cytotoxicity against mammalian cells was assessed using microtitre plates. Briefly, L6 cells (a rat skeletal muscle line) were seeded at 1 × 10^4 mL^−1 in 200 μL of RPMI-1640 growth medium (with 10% fetal calf serum) containing 7 different compound concentrations in a range previously established to encompass both the IC50 and IC90 values. The plates were incubated for 5 days at 37 °C and 20 μL Alamar Blue (Biosource Ltd, Wilton, North Yorkshire England.) was then added to each well. After an additional 8 hours incubation, the fluorescence was determined using a Gemini fluorescent plate reader (Molecular Devices). Inhibition of growth was calculated by comparison with control values and IC50 and IC90 values were determined in triplicate using linear regression analysis.

[4] = test system: T. cruzi intracellular amastigotes; test: microbe, parasite or virus in culture; type: cell-based, Trypanosoma cruzi CL Brener PpyRE9h:mScarlet; settings: Trypanosoma cruzi, 120 h; in HeLa cells, 5 days
Method: Assays were performed in 96-well black (clear bottom) microtitre plates (Corning Inc.). HeLa ^† cells were seeded at 10^4 per well, incubated for 3 days, and then infected with T. cruzi CL Brener PpyRE9h : mScarlet[25] culture form trypomastigotes (1 : 1 multiplicity of infection). After 16 hours, extracellular parasites were removed by washing in growth medium (×3), test compounds were added, and the plates incubated for 5 days. Fluorescence intensities were then determined using a BMG FLUOstar Omega plate reader (ex 545 nm, em 590 nm), and the data analysed using GraphPad Prism 9.0 software. The values were expressed as IC50/90 ± SD and are the mean of triplicate experiments.

Row | Compound | IC50 [1] | SI (promastigotes) CC50/Li IC50 [1] | CC50 at 72 h [2] | IC50 [3] | IC90 [3] | S.I. (selectivity index) [3] | IC50 (T. cruzi epimastigotes) | IC90 (T. cruzi epimastigotes) | IC50 (L6 cells) | IC50 [4] | IC90 [4]
1 | O=C(NCc1ccc(C23CC4CC(CC(C4)C2)C3)cc1)c1ccc([N+](=O)[O-])o1 [1a] | 3.46 µM | SI > 29 | > 100 µM |  |  |  |  |  |  |  | 
2 | O=C(NCCc1ccc(C23CC4CC(CC(C4)C2)C3)cc1)c1ccc([N+](=O)[O-])o1 [1b] | 0.66 µM |  | 50 to 100 µM |  |  |  |  |  |  |  | 
3 | O=C(Nc1ccc(C2C3CC4CC(C3)CC2C4)cc1)c1ccc([N+](=O)[O-])o1 (stereo not shown) [2a, N-[4-(2-Adamantyl)phenyl]-5-nitrofuran-2-carboxamide] | 0.12 µM |  | 1.56 to 6.25 µM | 130 ± 40 nM | 330 ± 20 nM | 4 | 550 ± 50 nM | 1200 ± 30 nM | 0.47 ± 0.07 µM |  | 
4 | O=C(NCCc1ccc(C2C3CC4CC(C3)CC2C4)cc1)c1ccc([N+](=O)[O-])o1 (stereo not shown) [2c, N-[4-(2-Adamantyl)phenethyl]-5-nitrofuran-2-carboxamide] | 0.05 µM |  | 3.13 to 12.5 µM | 42 ± 8 nM | 73 ± 8 nM | 42 | 280 ± 80 nM | 1200 ± 80 nM | 1.8 ± 0.2 µM |  | 
5 | O=C(Cn1ccnc1[N+](=O)[O-])Nc1ccc(C23CC4CC(CC(C4)C2)C3)cc1 [3a, N-[4-(1-Adamantyl)phenyl]-2-(2-nitro-1H-imidazol-1-yl)acetamide] | 0.7 µM |  | 25 to 100 µM |  |  |  |  |  |  |  | 
6 | O=C(Cn1ccnc1[N+](=O)[O-])NCc1ccc(C23CC4CC(CC(C4)C2)C3)cc1 [3b, N-[4-(1-Adamantyl)benzyl]-2-(2-nitro-1H-imidazol-1-yl)acetamide] | 13.8 µM |  | 50 to 100 µM |  |  |  |  |  |  |  | 
7 | O=C(Cn1ccnc1[N+](=O)[O-])NCCc1ccc(C23CC4CC(CC(C4)C2)C3)cc1 [3c, N-[4-(1-Adamantyl)phenethyl]-2-(2-nitro-1H-imidazol-1-yl) acetamide] | 22.1 µM |  | 50 to 100 µM |  |  |  |  |  |  |  | 
8 | O=C(Cn1ccnc1[N+](=O)[O-])NCc1ccc(C2C3CC4CC(C3)CC2C4)cc1 (stereo not shown) [4b, N-[4-(2-Adamantyl)benzyl]-2-(2-nitro-1H-imidazol-1-yl)acetamide] | > 40 µM |  | > 100 µM |  |  |  |  |  |  |  | 
9 | O=C(Cn1ccnc1[N+](=O)[O-])NCCc1ccc(C2C3CC4CC(C3)CC2C4)cc1 (stereo not shown) [4c, N-[4-(2-Adamantyl)phenethyl]-2-(2-nitro-1H-imidazol-1-yl)acetamide] | 37.9 µM | SI > 1 | > 50 µM |  |  |  |  |  |  |  | 
10 | O=C(Cc1ccc(C23CC4CC(CC(C4)C2)C3)cc1)NCCn1ccnc1[N+](=O)[O-] [5a, 2-[4-(1-Adamantyl)phenyl]-N-[2-(2-nitro-1H-imidazol-1-yl)ethyl] acetamide] | 3.48 µM |  | 25 to 50 µM |  |  |  |  |  |  |  | 
11 | O=C(Cc1ccc(C23CC4CC(CC(C4)C2)C3)cc1)NCCCn1ccnc1[N+](=O)[O-] [5b, 2-[4-(1-Adamantyl)phenyl]-N-[3-(2-nitro-1H-imidazol-1-yl)propyl] acetamide] | 4.81 µM |  | 50 to 100 µM |  |  |  |  |  |  |  | 
12 | O=C(NCCn1cnc([N+](=O)[O-])n1)c1ccc(C23CC4CC(CC(C4)C2)C3)cc1 [6a, 4-(1-Adamantyl)-N-[2-(3-nitro-1H-1,2,4-triazol-1-yl)ethyl] benzamide] | 0.74 µM |  | 25 to 50 µM | 230 ± 50 nM | 360 ± 30 nM | 120 | 540 ± 20 nM | 1200 ± 10 nM | 28 ± 7 µM | 4.88 ± 0.51 µM | 21.4 ± 3.4 µM
13 | O=C(NCCCn1cnc([N+](=O)[O-])n1)c1ccc(C23CC4CC(CC(C4)C2)C3)cc1 [6d, 4-(1-Adamantyl)-N-[3-(3-nitro-1H-1,2,4-triazol-1-yl)propyl] benzamide] | 0.27 µM |  | 50 to 100 µM | 180 ± 50 nM | 310 ± 40 nM | 123 | 450 ± 10 nM | 1100 ± 20 nM | 22 ± 1 µM | 3.73 ± 0.44 µM | 8.42 ± 0.44 µM
14 | O=C(CCc1ccc(C23CC4CC(CC(C4)C2)C3)cc1)NCCCn1cnc([N+](=O)[O-])n1 [6f, 3-[4-(1-Adamantyl)phenyl]-N-[3-(3-nitro-1H-1,2,4-triazol-1-yl)propyl]propanamide] | 0.39 µM |  | 50 to 100 µM | 140 ± 20 nM | 280 ± 10 nM | 134 | 440 ± 20 nM | 910 ± 10 nM | 19 ± 2 µM | 2.44 ± 0.57 µM | 8.23 ± 1.78 µM
15 | O=C(Nc1ccc(C23CC4CC(CC(C4)C2)C3)cc1)c1ccc([N+](=O)[O-])o1 [7a, N-[4-(1-Adamantyl)phenyl]-5-nitrofuran-2-carboxamide] | 0.76 µM |  | 6.25 to 25 µM | 91 ± 5 nM | 220 ± 10 nM |  | > 25 nM | > 25 nM | < 0.03 µM |  | 
16 | O=C(Cn1cnc([N+](=O)[O-])n1)Nc1ccc(C23CC4CC(CC(C4)C2)C3)cc1 [7b, N-[4-(1-Adamantyl)phenyl]-2-(3-nitro-1H-1,2,4-triazol-1-yl)acetamide] |  |  |  | 200 ± 70 nM | 910 ± 190 nM | 35 |  |  | 7.1 ± 0.3 µM |  | 
17 | O=C(Cn1cnc([N+](=O)[O-])n1)Nc1ccccc1C12CC3CC(CC(C3)C1)C2 [7c, N-[2-(1-Adamantyl)phenyl]-2-(3-nitro-1H-1,2,4-triazol-1-yl)acetamide] |  |  |  | > 25000 nM | > 25000 nM |  | > 25000 nM | > 25000 nM |  |  | 
18 | CSc1ccc(OCc2ncc([N+](=O)[O-])n2C)cc1 [Fxd, fexinidazole, reference compound] |  |  |  | 2400 ± 200 nM |  |  |  |  |  |  | 
